Measurements: ChEMBL document CHEMBL1201862, “PubChem BioAssay data set” (2004)
Activity calls are given as the source filed them.

Tests used:
[1] = cytotoxicity in MIN6 insulinoma cells, dose response, cytotoxicity control, cell-based, mouse insulinoma (AID 2122); format: functional;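 note: confirmatory high-throughput counterscreen run to flag cytotoxic compounds; mouse MIN-6 beta cells carrying an insulin promoter eGFP reporter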
[2] = target: DNA repair and recombination protein RAD54-like (Homo sapiens, UniProt Q92698); test: inhibitors of human RAD54 branch migration, confirmation, biochemical, fluorescence, cherry-picked samples, dose series (AID 651657); format: functional
[3] = growth suppression of beta-catenin-knockout colon cells, dose response, cell-based, HCT116, human colon tumor (AID 1045); format: functional;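 note: HCT116 colon tumor cells with beta catenin knocked out; cells exposed to compound for 60 hours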
[4] = target: DNA (cytosine-5)-methyltransferase 1 (Homo sapiens, UniProt P26358); test: DNMT1 methyltransferase inhibitors, confirmation, biochemical, fluorescent molecular beacon (AID 602386); format: functional
[5] = inhibitors of intracellular T. cruzi replication, confirmation, NIH3T3 host cells, beta-gal luminescence (AID 2044); format: functional, cell-based;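 note: intracellular parasites grown in NIH/3T3 mouse fibroblasts as host cells; luminescent beta-galactosidase reporter signal from transgenic T. cruzi replicating inside host cells; inhibitors lower the luminescence signal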
[6] = growth suppression of PTEN-null colon cells, dose response, cell-based, HCT116 PTEN knockout (AID 1047); format: functional;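 note: HCT116 colon tumor cells with PTEN knocked out; cells exposed to compound for 60 hours before readout; potency for loss of cell viability measured by luminescence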
[7] = cytotoxicity toward NIH3T3 fibroblasts, dose response, counter-screen, cell-based, ATP luminescence, mouse fibroblasts (AID 2010); format: functional;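 note: cells exposed to compound for about 90 hours before reading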
[8] = microbe, parasite or virus in culture; format: functional; settings: Mycobacterium tuberculosis
[9] = target: T1, Ubiquitin-conjugating enzyme E2 N (Homo sapiens, UniProt P61088); format: functional;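 note: Dose-response confirmation in a TR-FRET assay detecting UBC13-driven polyubiquitin chain formation, inhibition measured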
T1 sequence (P61088 whole entry): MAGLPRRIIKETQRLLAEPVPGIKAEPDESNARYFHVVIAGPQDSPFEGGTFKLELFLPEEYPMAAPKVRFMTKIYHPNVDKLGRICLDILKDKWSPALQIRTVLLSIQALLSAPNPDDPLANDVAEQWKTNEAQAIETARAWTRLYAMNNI

[10] = insulin promoter down-regulators in MIN6 cells, imaging, high-content screening, mouse beta cells (AID 1628); format: functional
[11] = target: T2, Rac GTPase-activating protein 1 (Homo sapiens, UniProt Q9H0H5); test: MgcRacGAP GTPase-activating activity inhibitors, confirmation, biochemical, ADP Hunter fluorescence, primary and confirmatory (AID 624330); format: functional
T2 sequence (Q9H0H5 whole entry): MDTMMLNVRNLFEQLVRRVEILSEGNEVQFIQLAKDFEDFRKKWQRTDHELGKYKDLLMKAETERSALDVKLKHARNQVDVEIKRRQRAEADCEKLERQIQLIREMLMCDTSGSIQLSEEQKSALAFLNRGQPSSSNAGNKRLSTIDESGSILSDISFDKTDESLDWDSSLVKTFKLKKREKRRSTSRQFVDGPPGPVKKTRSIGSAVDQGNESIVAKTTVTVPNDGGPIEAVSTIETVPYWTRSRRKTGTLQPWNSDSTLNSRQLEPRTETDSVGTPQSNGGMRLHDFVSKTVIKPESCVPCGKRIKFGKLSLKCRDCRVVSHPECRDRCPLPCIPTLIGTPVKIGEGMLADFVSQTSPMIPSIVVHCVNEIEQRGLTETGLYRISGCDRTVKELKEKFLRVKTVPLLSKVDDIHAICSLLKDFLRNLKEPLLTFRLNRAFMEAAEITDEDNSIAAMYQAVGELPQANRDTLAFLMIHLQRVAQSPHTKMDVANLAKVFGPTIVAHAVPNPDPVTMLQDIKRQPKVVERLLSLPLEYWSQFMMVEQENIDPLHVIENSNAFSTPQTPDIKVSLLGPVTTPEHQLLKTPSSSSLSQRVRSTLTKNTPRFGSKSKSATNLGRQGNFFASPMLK

[12] = target: T3, Carboxy-terminal domain RNA polymerase II polypeptide A small phosphatase 1 (Homo sapiens, UniProt Q9GZU7); test: inhibitors of CTDSP1, concentration-response testing, biochemical assay, absorbance-based, actives from ultra-high-throughput screening (AID 540297); format: functional
T3 sequence (Q9GZU7 whole entry): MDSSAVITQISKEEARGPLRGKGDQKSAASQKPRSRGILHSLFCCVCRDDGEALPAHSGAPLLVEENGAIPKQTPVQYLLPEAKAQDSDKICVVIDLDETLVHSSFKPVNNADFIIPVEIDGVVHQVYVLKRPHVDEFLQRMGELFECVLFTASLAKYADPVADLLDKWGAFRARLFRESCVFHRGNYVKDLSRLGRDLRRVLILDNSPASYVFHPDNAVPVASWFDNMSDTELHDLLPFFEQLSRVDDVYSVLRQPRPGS

[13] = StAR promoter reporter inhibition counter-screen, dose response, counter-screen for LRH-1 inverse agonist project, cell-based, luminescence, luciferase reporter (AID 651969); format: functional
[14] = target: Nuclear receptor subfamily 5 group A member 2 (Homo sapiens, UniProt O00482); format: functional, cell-based;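 note: HEK293T cells transfected with LRH-1 and a StAR promoter luciferase reporter; potency for inhibitors that lower LRH-1 driven reporter light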
[15] = target: Steroidogenic factor 1 (Homo sapiens, UniProt Q13285); test: Counterscreen for inverse agonists of the liver receptor homolog-1 (LRH-1; NR5A2): Luminescence-based cell-based high throughput dose response assay to identify inverse agonists of the Steroidogenic Factor 1 Nuclear Receptor (SF1; NR5A1).; format: functional
[16] = target: Tyrosine-protein phosphatase non-receptor type 11 (Homo sapiens, UniProt Q06124); test: SHP2 phosphatase inhibition, dose response, selectivity assay for STEP inhibitor project, biochemical (AID 602367); format: functional; settings: read-out: IC50_Mean
[17] = target: Dual specificity protein phosphatase 3 (Homo sapiens, UniProt P51452); test: VHR phosphatase inhibition, dose response, selectivity assay for STEP inhibitor project, biochemical (AID 602374); format: functional; settings: read-out: IC50_Mean
[18] = target: Tyrosine-protein phosphatase non-receptor type 5 (Homo sapiens, UniProt P54829); test: STEP phosphatase inhibitors, confirmation, biochemical, fluorescence intensity, uHTS hits (AID 602372); format: functional; settings: read-out: IC50_Mean
[19] = target: T4, Small ubiquitin-related modifier 1 (Homo sapiens, UniProt P63165); test: inhibitors of SUMO1 partner interactions, dose response, biochemical, FRET (AID 624383); format: functional; settings: read-out: IC50_Mean
[20] = target: T5, Induced myeloid leukemia cell differentiation protein Mcl-1 (Homo sapiens, UniProt Q07820); format: functional
[21] = target: Bcl-2-like protein 1 (Homo sapiens, UniProt Q07817); test: BCL-XL inhibitors, dose response, selectivity assay for MCL1 inhibitor project, biochemical, fluorescence polarization, 1536-well (AID 2218)
[22] = target: T4, Small ubiquitin-related modifier 1; test: inhibitors of SUMO1 peptide binding, dose response, biochemical, fluorescence polarization, uHTS hits (AID 624382); format: functional; settings: read-out: IC50_Mean
[23] = target: T5, Induced myeloid leukemia cell differentiation protein Mcl-1; test: MCL1-BIM BH3 interaction inhibitors, dose response, biochemical, fluorescence polarization, BIM-BH3 peptide, 1536-well (AID 2217)
[24] = target: T6, Tyrosine-protein phosphatase non-receptor type 7 (Homo sapiens, UniProt P35236); test: inhibitors of human HePTP phosphatase, […], biochemical, absorbance, leukemia target (AID 521); format: functional
T6 sequence (P35236 whole entry): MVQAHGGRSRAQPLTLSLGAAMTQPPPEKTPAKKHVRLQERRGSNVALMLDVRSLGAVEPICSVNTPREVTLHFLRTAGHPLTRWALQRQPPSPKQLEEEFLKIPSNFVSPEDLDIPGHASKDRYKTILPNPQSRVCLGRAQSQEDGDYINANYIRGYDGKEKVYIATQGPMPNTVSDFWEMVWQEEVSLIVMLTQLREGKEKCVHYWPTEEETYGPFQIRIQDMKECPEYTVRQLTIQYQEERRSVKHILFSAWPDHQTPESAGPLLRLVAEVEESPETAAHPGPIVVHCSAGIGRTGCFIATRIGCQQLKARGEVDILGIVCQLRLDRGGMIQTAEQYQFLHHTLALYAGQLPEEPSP

[25] = target: ADP-ribosylation factor GTPase-activating protein 1 (Rattus norvegicus, UniProt Q62848); test: Fluorescence polarization-based biochemical high throughput dose response screening assay to identify inhibitors of ADP-ribosylation factor GTPase activating protein 1 (ARFGAP1).; format: functional
[26] = target: T7, Methionyl-tRNA synthetase, putative (Trypanosoma brucei brucei, UniProt Q38C91); format: functional, Trypanosoma brucei brucei strain 927/4 GUTat10.1
T7 sequence (Q38C91 whole entry): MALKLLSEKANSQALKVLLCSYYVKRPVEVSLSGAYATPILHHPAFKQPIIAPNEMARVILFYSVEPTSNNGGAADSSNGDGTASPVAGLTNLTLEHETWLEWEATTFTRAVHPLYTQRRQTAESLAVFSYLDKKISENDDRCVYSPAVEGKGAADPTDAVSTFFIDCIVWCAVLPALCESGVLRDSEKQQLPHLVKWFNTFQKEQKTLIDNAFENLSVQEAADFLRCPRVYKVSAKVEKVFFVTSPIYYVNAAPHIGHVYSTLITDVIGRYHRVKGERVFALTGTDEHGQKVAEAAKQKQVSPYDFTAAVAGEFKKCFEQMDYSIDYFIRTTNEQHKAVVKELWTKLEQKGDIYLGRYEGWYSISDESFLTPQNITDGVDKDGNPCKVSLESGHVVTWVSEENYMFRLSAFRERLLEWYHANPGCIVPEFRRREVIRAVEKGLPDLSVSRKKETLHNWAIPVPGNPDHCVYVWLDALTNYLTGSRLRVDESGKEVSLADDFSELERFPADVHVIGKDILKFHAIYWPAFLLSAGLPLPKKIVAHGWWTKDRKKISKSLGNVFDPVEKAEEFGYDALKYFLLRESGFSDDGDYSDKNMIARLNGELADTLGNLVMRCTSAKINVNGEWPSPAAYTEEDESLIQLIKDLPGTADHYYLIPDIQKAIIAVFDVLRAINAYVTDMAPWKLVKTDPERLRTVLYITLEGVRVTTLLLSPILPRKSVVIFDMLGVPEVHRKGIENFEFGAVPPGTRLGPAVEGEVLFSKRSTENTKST

[27] = target: T7, Methionyl-tRNA synthetase, putative; format: functional, Trypanosoma brucei brucei strain 927/4 GUTat10.1; remark: listed apart in the source
[28] = Counterscreen for inhibitors of Trypanosoma brucei methionyl tRNA synthetase (MetRS): Luminescence-based cell-based high throughput dose response assay to identify compounds that are cytotoxic to Jurkat human T lymphocyte cells.; format: functional

T5 sequence (Q07820 whole entry): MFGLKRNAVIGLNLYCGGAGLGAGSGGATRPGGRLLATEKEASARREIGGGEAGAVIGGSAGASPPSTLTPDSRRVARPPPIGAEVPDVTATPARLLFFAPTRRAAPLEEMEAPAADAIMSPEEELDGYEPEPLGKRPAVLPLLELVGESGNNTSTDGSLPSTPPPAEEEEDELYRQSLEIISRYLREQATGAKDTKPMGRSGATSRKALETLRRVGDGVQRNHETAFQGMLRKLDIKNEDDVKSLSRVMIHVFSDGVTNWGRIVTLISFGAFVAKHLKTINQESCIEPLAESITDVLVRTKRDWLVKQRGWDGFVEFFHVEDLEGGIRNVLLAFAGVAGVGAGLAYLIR
T4 sequence (P63165 whole entry): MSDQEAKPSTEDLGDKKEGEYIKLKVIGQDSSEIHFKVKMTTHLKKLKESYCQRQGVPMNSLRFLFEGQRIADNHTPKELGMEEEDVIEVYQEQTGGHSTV
DNA (cytosine-5)-methyltransferase 1, sequence (P26358 whole entry): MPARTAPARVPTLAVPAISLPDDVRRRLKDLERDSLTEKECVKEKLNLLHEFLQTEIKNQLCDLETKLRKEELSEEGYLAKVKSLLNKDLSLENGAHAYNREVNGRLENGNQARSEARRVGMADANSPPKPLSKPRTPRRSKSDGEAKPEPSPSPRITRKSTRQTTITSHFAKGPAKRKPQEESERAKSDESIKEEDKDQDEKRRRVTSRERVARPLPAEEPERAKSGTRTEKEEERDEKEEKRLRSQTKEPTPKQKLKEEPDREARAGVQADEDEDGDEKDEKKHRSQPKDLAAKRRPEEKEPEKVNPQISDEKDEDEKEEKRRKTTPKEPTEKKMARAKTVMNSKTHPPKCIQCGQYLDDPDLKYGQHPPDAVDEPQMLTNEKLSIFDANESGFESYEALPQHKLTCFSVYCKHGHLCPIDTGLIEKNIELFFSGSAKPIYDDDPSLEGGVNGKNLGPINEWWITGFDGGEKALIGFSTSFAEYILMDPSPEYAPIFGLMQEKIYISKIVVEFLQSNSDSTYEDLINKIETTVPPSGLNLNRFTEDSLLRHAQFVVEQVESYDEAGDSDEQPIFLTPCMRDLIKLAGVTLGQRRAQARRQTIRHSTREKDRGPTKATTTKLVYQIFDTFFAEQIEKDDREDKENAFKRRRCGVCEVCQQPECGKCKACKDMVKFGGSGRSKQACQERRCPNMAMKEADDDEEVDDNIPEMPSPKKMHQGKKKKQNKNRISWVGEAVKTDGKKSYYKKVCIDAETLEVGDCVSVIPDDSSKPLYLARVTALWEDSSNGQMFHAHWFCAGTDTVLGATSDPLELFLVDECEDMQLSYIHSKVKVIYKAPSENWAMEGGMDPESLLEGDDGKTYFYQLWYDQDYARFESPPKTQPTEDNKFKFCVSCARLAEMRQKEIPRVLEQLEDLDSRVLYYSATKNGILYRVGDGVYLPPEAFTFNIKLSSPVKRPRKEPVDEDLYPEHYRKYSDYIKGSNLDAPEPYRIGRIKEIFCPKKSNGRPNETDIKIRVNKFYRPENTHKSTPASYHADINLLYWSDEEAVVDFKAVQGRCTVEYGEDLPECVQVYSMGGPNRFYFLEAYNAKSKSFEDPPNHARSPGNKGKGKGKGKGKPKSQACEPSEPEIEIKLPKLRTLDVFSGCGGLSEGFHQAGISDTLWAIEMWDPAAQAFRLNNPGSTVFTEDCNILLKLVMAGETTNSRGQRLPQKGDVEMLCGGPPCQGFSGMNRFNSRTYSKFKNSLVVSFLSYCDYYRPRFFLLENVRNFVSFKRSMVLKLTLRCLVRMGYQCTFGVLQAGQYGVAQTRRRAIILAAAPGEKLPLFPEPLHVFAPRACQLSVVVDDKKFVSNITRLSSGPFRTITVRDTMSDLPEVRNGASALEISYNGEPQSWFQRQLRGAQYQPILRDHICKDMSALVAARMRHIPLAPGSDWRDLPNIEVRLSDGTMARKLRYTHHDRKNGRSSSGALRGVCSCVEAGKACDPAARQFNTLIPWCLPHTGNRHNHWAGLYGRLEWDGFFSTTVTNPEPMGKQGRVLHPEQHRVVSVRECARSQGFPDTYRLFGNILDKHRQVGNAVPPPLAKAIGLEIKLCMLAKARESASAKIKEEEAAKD
Nuclear receptor subfamily 5 group A member 2, sequence (O00482 whole entry): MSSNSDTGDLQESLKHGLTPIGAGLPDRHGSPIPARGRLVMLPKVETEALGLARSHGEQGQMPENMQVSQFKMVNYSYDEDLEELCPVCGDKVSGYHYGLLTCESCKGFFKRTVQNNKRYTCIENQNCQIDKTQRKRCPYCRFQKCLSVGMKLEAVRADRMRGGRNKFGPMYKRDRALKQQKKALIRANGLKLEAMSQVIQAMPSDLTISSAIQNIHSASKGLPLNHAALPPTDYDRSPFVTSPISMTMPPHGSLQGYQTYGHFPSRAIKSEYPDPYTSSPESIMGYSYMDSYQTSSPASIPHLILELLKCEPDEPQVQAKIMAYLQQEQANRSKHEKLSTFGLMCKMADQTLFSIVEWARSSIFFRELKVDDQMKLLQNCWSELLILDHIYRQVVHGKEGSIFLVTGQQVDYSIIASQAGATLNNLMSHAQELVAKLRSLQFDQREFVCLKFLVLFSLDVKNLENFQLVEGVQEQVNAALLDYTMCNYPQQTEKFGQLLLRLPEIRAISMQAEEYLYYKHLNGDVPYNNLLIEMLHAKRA
DNA repair and recombination protein RAD54-like, sequence (Q92698 whole entry): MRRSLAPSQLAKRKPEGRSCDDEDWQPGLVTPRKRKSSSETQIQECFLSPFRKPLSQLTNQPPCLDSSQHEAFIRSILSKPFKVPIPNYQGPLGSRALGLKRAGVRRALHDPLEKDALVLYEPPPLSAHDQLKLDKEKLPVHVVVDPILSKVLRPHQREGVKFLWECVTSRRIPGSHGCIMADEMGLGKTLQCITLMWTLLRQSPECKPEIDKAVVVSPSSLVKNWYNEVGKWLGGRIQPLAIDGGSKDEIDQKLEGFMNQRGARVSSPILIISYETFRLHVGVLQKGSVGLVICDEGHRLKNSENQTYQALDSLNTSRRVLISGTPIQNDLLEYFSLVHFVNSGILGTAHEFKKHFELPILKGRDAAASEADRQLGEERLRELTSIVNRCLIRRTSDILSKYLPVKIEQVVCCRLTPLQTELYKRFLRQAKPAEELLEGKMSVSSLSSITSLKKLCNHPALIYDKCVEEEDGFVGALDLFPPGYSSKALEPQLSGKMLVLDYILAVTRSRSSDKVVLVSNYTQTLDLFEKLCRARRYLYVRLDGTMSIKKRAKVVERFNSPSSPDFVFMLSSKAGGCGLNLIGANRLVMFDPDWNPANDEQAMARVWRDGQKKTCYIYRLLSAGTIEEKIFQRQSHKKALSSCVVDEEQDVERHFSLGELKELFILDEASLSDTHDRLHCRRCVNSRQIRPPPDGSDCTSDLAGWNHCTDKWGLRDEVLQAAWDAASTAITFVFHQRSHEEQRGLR
ADP-ribosylation factor GTPase-activating protein 1, sequence (Q62848 whole entry): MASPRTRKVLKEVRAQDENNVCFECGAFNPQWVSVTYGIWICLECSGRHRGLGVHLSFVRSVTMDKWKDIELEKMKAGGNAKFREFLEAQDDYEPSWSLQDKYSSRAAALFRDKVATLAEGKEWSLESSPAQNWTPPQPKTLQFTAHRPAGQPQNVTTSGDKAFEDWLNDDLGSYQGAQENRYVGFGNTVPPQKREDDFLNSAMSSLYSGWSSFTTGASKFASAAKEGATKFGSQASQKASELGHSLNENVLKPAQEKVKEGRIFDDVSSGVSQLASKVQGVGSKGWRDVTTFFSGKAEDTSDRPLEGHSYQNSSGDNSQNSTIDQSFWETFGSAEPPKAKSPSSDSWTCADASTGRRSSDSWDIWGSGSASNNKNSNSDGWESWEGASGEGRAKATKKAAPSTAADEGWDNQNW
Tyrosine-protein phosphatase non-receptor type 5, sequence (P54829 whole entry): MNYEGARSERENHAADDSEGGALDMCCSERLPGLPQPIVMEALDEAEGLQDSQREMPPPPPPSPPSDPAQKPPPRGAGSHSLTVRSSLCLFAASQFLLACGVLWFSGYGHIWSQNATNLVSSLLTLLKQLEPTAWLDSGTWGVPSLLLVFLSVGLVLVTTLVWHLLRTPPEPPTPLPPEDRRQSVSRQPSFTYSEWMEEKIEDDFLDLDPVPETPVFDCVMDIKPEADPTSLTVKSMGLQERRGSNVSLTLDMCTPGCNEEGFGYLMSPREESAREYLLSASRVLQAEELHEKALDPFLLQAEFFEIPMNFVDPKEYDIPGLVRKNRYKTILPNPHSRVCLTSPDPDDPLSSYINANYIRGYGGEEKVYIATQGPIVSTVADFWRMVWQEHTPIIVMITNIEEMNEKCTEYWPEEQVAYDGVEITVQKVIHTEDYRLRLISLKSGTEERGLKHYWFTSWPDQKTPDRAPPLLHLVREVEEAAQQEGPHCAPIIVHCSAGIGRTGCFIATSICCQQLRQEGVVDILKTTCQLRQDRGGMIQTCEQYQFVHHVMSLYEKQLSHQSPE
Bcl-2-like protein 1, sequence (Q07817 whole entry): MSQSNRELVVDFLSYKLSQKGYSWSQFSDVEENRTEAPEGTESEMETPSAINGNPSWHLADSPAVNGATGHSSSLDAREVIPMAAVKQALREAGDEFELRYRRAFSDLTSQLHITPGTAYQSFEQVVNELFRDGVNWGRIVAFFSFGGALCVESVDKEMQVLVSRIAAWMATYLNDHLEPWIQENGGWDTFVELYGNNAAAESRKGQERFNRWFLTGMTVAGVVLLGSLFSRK
Dual specificity protein phosphatase 3, sequence (P51452 whole entry): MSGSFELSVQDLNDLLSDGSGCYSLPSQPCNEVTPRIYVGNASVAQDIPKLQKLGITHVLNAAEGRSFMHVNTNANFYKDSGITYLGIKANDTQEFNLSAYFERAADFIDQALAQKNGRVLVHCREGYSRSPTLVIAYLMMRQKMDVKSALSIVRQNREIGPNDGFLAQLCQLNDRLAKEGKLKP

CCN(CC)CCCNc1nc2cc(OC)c(OC)cc2c2nc(-c3ccccc3)nn12
IC50 [1]: 2.07 µM (active) | AC50 [2]: 2.03 µM (active) | EC50 [3]: 4.58 µM (active) | IC50 [4]: > 99 µM (inactive) | EC50 [5]: 0.709 µM (active) | EC50 [6]: 7.1 µM (active) | EC50 [7]: 12 µM (active) | CC50 [8]: 19.9 µM (active) | IC50 [9]: > 20 µM (inactive) | IC50 [10]: 1.11 µM (active)

C/C=C/C=C/C(=O)C1=C(O)[C@]2(C)C(=O)C(C)(O)[C@H]1[C@H]([C@]1(C)OC(O)=C(C)C1=O)[C@H]2C(=O)/C=C/C=C/C (stereo not given in full)
IC50 [11]: 122 µM (active) | IC50 [4]: 5.25 µM (active) | IC50 [12]: 5.92 µM (active)

COc1ccccc1Oc1nnnn1-c1ccc(C(N)=O)cc1
IC50 [13]: 35.9 µM (inactive) | IC50 [14]: 35.9 µM (inactive) | IC50 [15]: 7.85 µM (active)

CC(C)OCCCN=C(S)Nc1ccc(S(N)(=O)=O)cc1
IC50 [16]: 0.771 µM (active) | IC50 [17]: 1.08 µM (active) | IC50 [18]: 53 µM (inactive)

Cn1cnnc1SCC(=O)Nc1sc2c(c1C(N)=O)CCC2
IC50 [19]: 13.7 µM (active) | IC50 [20]: 3.16 µM (active) | IC50 [21]: > 36.3 µM (not active) | IC50 [22]: > 66.6 µM (inactive) | IC50 [23]: 8.58 µM (active) | IC50 [24]: 2.43 µM (active) | IC50 [12]: 2.77 µM (active)

COCCCn1c(C)cc(C(=O)CN2c3cccc4cccc(c34)S2(=O)=O)c1C
IC50 [25]: 60.2 µM (inactive)

Nc1c(Cl)ncnc1Nc1ccc(C(=O)O)cc1
IC50 [26]: 12.5 µM (inactive) | IC50 [27]: 3.93 µM (active) | IC50 [28]: 83.2 µM (inactive)
